Here are results for 6 compounds from patent US8697641B2, “4-amino-4-oxobutanoyl peptide cyclic analogues, inhibitors of viral replication” (Achillion Pharmaceuticals, Inc., priority 2008, dated 2014).

For orientation: EC50 means the concentration giving half of the maximal effect. Read a low EC50 as an effect from little substance.

The structures appear in SMILES notation.

For the assay, the system named is Hepatitis C replicon. Nature of the assay: HCV replicon assay (NPT ELISA readout) in Huh-7 replicon-containing cells. Format: cell-based, Hepatitis C virus. The conditions noted are these: HCV replicon in Huh-7 cells, three days incubation. A digest of the protocol: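 Replication is measured as neomycin phosphotransferase level by captured ELISA after three days of compound exposure (typically 10 to 0.03 μM, 6 concentrations) at 37 °C. Cells are Huh-7 harbouring an HCV replicon with neo gene and NS3-NS5B; interferon alpha is the positive control.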
(In general: A replicon is a self-replicating genome or part of one, used to study replication in cells.)

As for `COc1ccc2c(O[C@@H]3C[C@H]4C(=O)N[C@]5(C(=O)NS(=O)(=O)C6CC6)C[C@H]5/C=C\CCCCC[C@H](CC(=O)N5CCC(C(F)(F)F)CC5)C(=O)N4C3)cc(-c3nc(C(C)C)cs3)nc2c1` [Compound 119, (2R,6R,14aR,16aS,Z)-N-(cyclopropylsulfonyl)-2-(2-(4-isopropylthiazol-2-yl)-7-methoxyquinolin-4-yloxy)-5,16-dioxo-6-(2-oxo-2-(4-(trifluoromethyl)piperidin-1-yl)ethyl)-1,2,3,5,6,7,8,9,10,11, 13a,14,14a,15,16,16a-hexadecahydrocyclopropa [e]pyrrolo[1,2-a][1,4] diazacyclopentadecine-14a-carboxamide], for the setting “Hepatitis C virus, 72 h”, the EC50 is below 1 µM.

The compound `COc1ccc2c(O[C@@H]3C[C@H]4C(=O)N[C@]5(C(=O)NS(=O)(=O)C6CC6)C[C@H]5CCCCCCC[C@H](CC(=O)N5CCCCC5)C(=O)N4C3)cc(-c3ccccc3)nc2c1` [Compound 51, (2R,6R,13aR, 14aR,16aS)-N-(cyclopropylsulfonyl)-2-(7-methoxy-2-phenylquinolin-4-yloxy)-5,16-dioxo-6-(2-oxo-2-(piperidin-1-yl)ethyl) octadecahydrocyclopropa [e]pyrrolo[1,2-a][1,4] diazacyclopentadecine-14a-carboxamide] returned an EC50 below 1 µM.

For `COc1ccc2c(O[C@@H]3C[C@H]4C(=O)N[C@]5(C(=O)NS(=O)(=O)C6CC6)C[C@H]5/C=C\CCCCC[C@H](CC(=O)N5CCCC(F)(F)C5)C(=O)N4C3)cc(-c3cccnc3)nc2c1C` [Compound 129, (2R,6R,14aR,16aS,Z)-N-(cyclopropylsulfonyl)-6-(2-(3,3-difluoropiperidin-1-yl)-2-oxoethyl)-2-(7-methoxy-8-methyl-2-(pyridin-3-yl)quinolin-4-yloxy)-5,16-dioxo-1,2,3,5,6,7,8,9,10,11, 13a,14,14a,15,16,16a-hexadecahydrocyclopropa [e]pyrrolo[1,2-a][1,4] diazacyclopentadecine-14a-carboxamide], the EC50 (Hepatitis C virus, 72 h) is above 10 µM.

In turn, `COc1ccc2c(O[C@@H]3C[C@H]4C(=O)N[C@]5(C(=O)NS(=O)(=O)C6CC6)C[C@H]5/C=C\CCCCC[C@H](CC(=O)N5CCCCC5)C(=O)N4C3)cc(-c3nc(C(C)C)cs3)nc2c1` [Compound 118, (2R,6R,14aR,16aS,Z)-N-(cyclopropylsulfonyl)-2-(2-(4-isopropylthiazol-2-yl)-7-methoxyquinolin-4-yloxy)-5,16-dioxo-6-(2-oxo-2-(piperidin-1-yl)ethyl)-1,2,3,5,6,7,8,9,10,11, 13a,14,14a,15,16,16a-hexadecahydrocyclopropa [e]pyrrolo[1,2-a][1,4] diazacyclopentadecine-14a-carboxamide] registered an EC50 (Hepatitis C virus, 72 h) below 1 µM.

`COc1ccc2c(O[C@@H]3C[C@H]4C(=O)N[C@]5(C(=O)NS(=O)(=O)C6CC6)C[C@H]5/C=C\CCCCC[C@H](CC(=O)N5CCCC(C(F)(F)F)C5)C(=O)N4C3)cc(-c3ccccc3)nc2c1` (stereo partly drawn) [Compound 71, (2R,6R,13aS, 14aR,16aS,Z)-N-(cyclopropylsulfonyl)-2-(7-methoxy-2-phenylquinolin-4-yloxy)-5,16-dioxo-6-(2-oxo-2-(3-(trifluoromethyl)piperidin-1-yl)ethyl)-1,2,3,5,6,7,8,9,10,11, 13a,14,14a,15,16,16a-hexadecahydrocyclopropa [e]pyrrolo[1,2-a][1,4] diazacyclopentadecine-14a-carboxamide] gave an EC50 (Hepatitis C virus, 72 h) below 1 µM.

`COc1ccc2c(O[C@@H]3C[C@H]4C(=O)N[C@]5(C(=O)NS(=O)(=O)C6CC6)C[C@H]5/C=C\CCCCC[C@H](CC(=O)N5CCCCC5)C(=O)N4C3)cc(-c3ccccn3)nc2c1` [Compound 74, (2R,6R,13aS, 14aR,16aS,Z)-N-(cyclopropylsulfonyl)-2-(7-methoxy-2-(pyridin-2-yl)quinolin-4-yloxy)-5,16-dioxo-6-(2-oxo-2-(piperidin-1-yl)ethyl)-1,2,3,5,6,7,8,9,10,11, 13a,14,14a,15,16,16a-hexadecahydrocyclopropa [e]pyrrolo[1,2-a][1,4] diazacyclopentadecine-14a-carboxamide] yielded an EC50 (Hepatitis C virus, 72 h) below 1 µM.
